The text below walks through data of publication PMC3128934, “Substrate Pathways and Mechanisms of Inhibition in the Sulfur Oxygenase Reductase of Acidianus Ambivalens” (Frontiers in Microbiology, 2011).

Experiment [1] concerns sulfur oxygenase reductase (SOR). Also on record: method as in Kletzin, [1989]. The note with it: ref Kletzin, [1989], cited from earlier work; for oxygenase activity remaining: 1 mM inhibitor; for residual activity for the oxidized reaction products: 0.1 mM inhibitor.
The target in experiment [2] is sulfur oxygenase reductase (SOR) H277A mutant (Acidianus ambivalens, UniProt P29082, H277A). Briefly: biochemical. The settings on record: for Ki: Ki-value (half-maximal inhibitory concentration), H277A mutant. As to the method: (§1) Specific activities of the wild type and mutant proteins were determined by incubation of 2–5 μg of purified enzyme/ml of Tris–HCl buffer pH 7.2 containing 2% sulfur and 0.1% of Tween 20 as described previously (Kletzin, [1989]; Urich et al., [2004], [2005b]). Samples were taken at appropriate time points (usually after 0, 2, 4, 6, 8, and 10 min) and the concentration of the products was determined colorimetrically. Specific activities were calculated from the linear increase of product concentrations (Kletzin, [1989]). At least two activity measurements were performed for each mutant using independently purified protein preparations (see below, Table 2). Iron quantification was performed with pure protein preparations using the 2,4,6-tripyridyl-1,3,5-triazine method (TPTZ; Fischer and Price, [1964]). Protein concentrations were determined by the Coomassie Blue method (Bradford, [1976]) or using the BCA Protein Assay Kit (Novagen/Merck, Darmstadt, Germany) according to the manufacturer's instructions. Samples of purified proteins were separated by SDS-PAGE (Schägger and von Jagow, [1987]) and visualized with colloidal Coomassie Blue staining (Roti-Blue; Roth, Karlsruhe, Germany).
(§2) Zinc inhibition assays of the wild type and mutant proteins were performed by addition of a freshly prepared zinc chloride solution to the reaction buffer in concentrations ranging from 0.01 to 1 mM (Kletzin, [1989]). After addition of the enzyme, the mixture was incubated for 30 min at room temperature before starting the reaction by heating to 85°C and measurement of the specific activities. A zinc/buffer mixture without protein was used as a negative control.

The target in experiment [3] is sulfur oxygenase reductase (SOR) wild type (Acidianus ambivalens, UniProt P29082). Briefly: biochemical. The note with it: Ki-value (half-maximal inhibitory concentration), wild type enzyme, 30 min preincubation at room temperature, reaction at 85°C. As to the method:
as §1, §2

For experiment [4], the target named is sulfur oxygenase reductase (SOR) H166A mutant (Acidianus ambivalens, UniProt P29082, H166A). Briefly: biochemical. The settings on record: for Ki: Ki-value (half-maximal inhibitory concentration), H166A mutant. As to the method: as §1, §2

The structures appear in SMILES notation.

Sequence of sulfur oxygenase reductase (SOR) H277A mutant (P29082 whole entry H277A): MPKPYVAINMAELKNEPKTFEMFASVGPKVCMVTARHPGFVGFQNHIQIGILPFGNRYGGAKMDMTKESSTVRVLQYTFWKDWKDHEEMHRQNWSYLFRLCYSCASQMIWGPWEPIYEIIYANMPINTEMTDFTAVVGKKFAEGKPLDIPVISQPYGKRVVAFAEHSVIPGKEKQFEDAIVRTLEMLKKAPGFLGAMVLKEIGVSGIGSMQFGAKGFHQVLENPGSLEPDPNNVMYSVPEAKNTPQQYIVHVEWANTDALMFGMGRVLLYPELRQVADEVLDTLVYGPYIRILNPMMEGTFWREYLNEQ
Sequence of sulfur oxygenase reductase (SOR) H166A mutant (P29082 whole entry H166A): as the sequence (P29082 whole entry H277A) above, with H166A, A277H counted along it
Sequence of sulfur oxygenase reductase (SOR) wild type (P29082 whole entry): as the sequence (P29082 whole entry H277A) above, with A277H counted along it

Turning to `NC(=O)CI` [IAA, iodoacetamide], in experiment [1], the oxygenase activity remaining is 27%.
As for `[Hg+2]` [Hg^2+], the “residual activity for the oxidized reaction products” value in experiment [1] is given as 37%.
As for `CCN1C(=O)C=CC1=O` [NEM, N-ethylmaleimide], the oxygenase activity remaining in experiment [1] is 47%.
For the compound `[Zn+2]` [zinc chloride], the “residual activity for the oxidized reaction products” value in experiment [1] is given as 74%. In addition, the “Increase of Ki-value compared to the wild type” value in experiment [2] (H277A mutant vs wild type) and in experiment [4] (H166A mutant vs wild type) was “two- to threefold” throughout. In addition, the Ki was 157 µM in experiment [2] (oxygenase activity); 144 µM in experiment [2] (reductase activity); 45 µM in experiment [3] (oxygenase activity); 39 µM in experiment [3] (reductase activity); 121 µM in experiment [4] (oxygenase activity); 150 µM in experiment [4] (reductase activity).

A word on the Ki: it is a measure of affinity in units of concentration, obtained from inhibition or displacement.
